Read-outs that look alike come from different tables or passages of the source.

The term IC50 denotes the midpoint of a concentration-inhibition curve. A lower IC50 goes with greater potency.

The test system of one data set is RPMI-8226 myeloma cells. Put plainly: Anti-myeloma activity, inhibition of cell proliferation. Format: cell-based. Conditions: Homo sapiens, 72 hours incubation, cell count. The method, then: After incubation in RPMI-1640 (containing 10% FBS and 1% Penn-strep) for 72 hours, cell count was determined and IC50 values were calculated as inhibitory effect against cell proliferation (referring to Journal of Clinical Pathology, 2006, 59, 947-951.).

Data set [1] addresses cytidine deaminase: CDA (1-146aa), Human, His-tagged, Recombinant (Homo sapiens, UniProt P32320). Put plainly: Stability against cytidine deaminase (HPLC). The method, then: Stability of Silyl Etherified Derivatives of 5-azacytidines in Carbohydrate Moiety Against Cytidine Deaminase
About 1 mg each of the silyl etherified derivatives of 5-azacytidines in carbohydrate moiety (referring to formula (1a)) was dissolved in 1 mL of acetonitrile. 10 μL of the solution was diluted with 1 mL of PBS. 10 μL of PBS solution of cytidine deaminase was added to the solution and stirred at 37° C. for about 1 hour. 1 mL of acetonitrile was added to the reaction solution and separated by centrifugation. The supernatant was analyzed with HPLC.
Cytidine deaminase: CDA (1-146aa), Human, His-tagged, Recombinant cytidine deaminase (ATGen)
Column: CAPCELL PAK ADME (4.6 mm×150 mm, particle size: 3 μm)
Elution: eluate A=Purified water containing 10 mM ammonium formate • eluate B=Acetonitrile • Gradient mode: A:B=99:1→5:95/30 minutes

A short description of data set [2]: Non-enzymatic hydrolysis in PBS solution at 37° C. (HPLC). To be noted: 10 mM PBS; for 5-Azacytidine or 2′-deoxy-5-azacytidine (%) After 4 hours / 5-Azacytidine or 2′-deoxy-5-azacytidine (%) After 8 hours / 5-Azacytidine or 2′-deoxy-5-azacytidine (%) After 24 hours: released parent by HPLC; for production of the desilylated parent (5-azacytidine or 2′-deoxy-5-azacytidine): traced by HPLC. The data set is classed as physicochemical. The method, then:
Non-Enzymatic Hydrolysis of Silyl Etherified Derivatives of 5-Azacytidines in Carbohydrate Moiety
5 μL of the solution was added to 100 μL of 10 mM PBS solution and stirred at 37° C. The reactions were traced by HPLC analysis.
HPLC conditions were same as those in test example 1.

[3] abbreviates: PBS, cytidine deaminase, 37° C., about 1 hour, peak of the starting material.

Chain of cytidine deaminase: CDA (1-146aa), Human, His-tagged, Recombinant (P32320 whole entry): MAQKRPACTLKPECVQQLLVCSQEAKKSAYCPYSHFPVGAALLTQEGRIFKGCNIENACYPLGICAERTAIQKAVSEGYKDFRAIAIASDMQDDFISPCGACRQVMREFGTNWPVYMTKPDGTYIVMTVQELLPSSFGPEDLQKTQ

With `Nc1ncn([C@H]2C[C@H](O)[C@@H](CO)O2)c(=O)n1` [2′-Deoxy-5-azacytidine, 2′-deoxy-5-azacytidine, reference compound], the IC50 in the data set on RPMI-8226 myeloma cells worked out at 30 nM. Also, in data set [1] (PBS, cytidine deaminase, 37° C.), the “stability against cytidine deaminase (in words)” value is on record as “disappeared completely”. For the same compound, in data set [1] (setting [3]), the “Change in HPLC pattern” value is reported as “The peak of the starting material disappeared”.
With `CC(C)(C)[Si](C)(C)OC[C@H]1O[C@@H](n2cnc(N)nc2=O)[C@H](O)[C@@H]1O` [compound E, 5′-O-(tert-Butyldimethylsilyl)-5-azacytidine], the “Change in HPLC pattern” value in data set [1] is reported as “Almost no change in the peak of the starting”.
With `CC[Si](CC)(CC)OC[C@H]1O[C@@H](n2cnc(N)nc2=O)[C@H](O)[C@@H]1O` [compound J, 5′-O-Triethylsilyl-5-azacytidine], the IC50 in the data set on RPMI-8226 myeloma cells came to 656 nM. Moreover, the “Change in HPLC pattern” value in data set [1] is given as “Almost no change in the peak of the starting”. Further, in data set [2], the “5-Azacytidine or 2′-deoxy-5-azacytidine (%) After 4 hours” value turned out to be 16%, the “5-Azacytidine or 2′-deoxy-5-azacytidine (%) After 8 hours” value is listed as 22%, the “5-Azacytidine or 2′-deoxy-5-azacytidine (%) After 24 hours” value was 62% and the “production of the desilylated parent (5-azacytidine or 2′-deoxy-5-azacytidine)” value is “production of 5-azacytidine was confirmed”.
For `CC[Si](CC)(CC)OC[C@H]1O[C@@H](n2cnc(N)nc2=O)C[C@@H]1O` [compound K, 5′-O-Triethylsilyl-2′-deoxy-5-azacytidine], 270 nM corresponded to half-maximal inhibition with RPMI-8226 myeloma cells (IC50). Moreover, in data set [1] (setting [3]), the “Change in HPLC pattern” value is reported as “Almost no change in the peak of the starting”. In data set [2], the “5-Azacytidine or 2′-deoxy-5-azacytidine (%) After 4 hours” value turned out to be 10%, the “5-Azacytidine or 2′-deoxy-5-azacytidine (%) After 8 hours” value is reported as 12%, the “5-Azacytidine or 2′-deoxy-5-azacytidine (%) After 24 hours” value came to 48% and the “production of the desilylated parent (5-azacytidine or 2′-deoxy-5-azacytidine)” value is reported as “production of corresponding deskill form (2′-deoxy-5-azacytidine) was confirmed”.

(Values after patent US10227374B2, “Silyl etherified derivatives of 5-azacytidines in carbohydrate moiety” (OHARA PHARMACEUTICAL CO., LTD., priority 2016, dated 2019).)
